In PMC4447534 (ChemMedChem, 2015):
“And” between values parts separate entries of the source, which are not always exact repeats. Identical values can stand only once. Like-named read-outs stand apart in the source and are kept apart here.

Key:
T. cruzi (amastigotes) [1] = details: for T. cruzi ED50: intracellular amastigotes, one experiment in triplicate, means ± S.D.; for SI (T. cruzi): selectivity index, Vero cells versus T. cruzi
T. cruzi (amastigotes) [2] = test: microbe, parasite or virus in culture; details: Trypanosoma cruzi, read-out: T. cruzi ED50
Vero cells = test: Cytotoxicity for Vero cells; type: cell-based; details: one experiment in triplicate, means ± S.D.
[3] = test system: murine models of Chagas disease; details: ketoconazole as positive control; cited from earlier work
[4] = test system: amastigotes of Trypanosoma cruzi; details: cited from earlier work
[5] = selectivity index, Vero cells versus T. gondii

N#CSCCOc1cccc(Oc2ccccn2)c1 [Compound 60, 3-(2-Pyridyloxy)phenoxyethyl Thiocyanate]
T. cruzi ED50 (T. cruzi (amastigotes) [1]): free of antiparasitic activity
IC50 (T. cruzi (amastigotes) [2]): > 10 µM
Cytotoxicity ED50 (Vero cells): > 200.0 µM

N#CSCCOc1ccc(Oc2cccc(C(F)(F)F)c2)cc1 [Compound 15, 4-[(3-Trifluoro)phenoxy]phenoxyethyl Thiocyanate]
T. cruzi ED50 (T. cruzi (amastigotes) [1]): 10.0 µM and 10.0 ± 2.5 µM
SI (T. cruzi) (T. cruzi (amastigotes) [1]): > 5.0
SI (T. gondii) (T. gondii (tachyzoites)): > 31.1
T. gondii ED50 (T. gondii (tachyzoites)): 1.6 µM and 1.66 ± 0.35 µM
Cytotoxicity ED50 (Vero cells): > 50.0 µM

N#CSCCOc1cccc(Oc2ccccc2Cl)c1 [Compound 46, 3-(2-Chlorophenoxy)phenoxyethyl Thiocyanate]
IC50 (T. cruzi (amastigotes) [2]): 11.9 ± 0.38 µM
SI (T. gondii) (T. gondii (tachyzoites); [5]): 23.4
Cytotoxicity ED50 (Vero cells): > 50.0 µM

COc1ccccc1Oc1cccc(OCCSC#N)c1 [Compound 49, 3-(2-Methoxyphenoxy)phenoxyethyl Thiocyanate]
IC50 (T. cruzi (amastigotes) [2]): 11.7 ± 2.52 µM
SI (T. gondii) (T. gondii (tachyzoites); [5]): 41.5
Cytotoxicity ED50 (Vero cells): 115.7 ± 39.8 µM

α-Naphtyloxyphenylethyl Thiocyanate [Compound 24]
SI (T. cruzi) (T. cruzi (amastigotes) [1]): > 7
T. gondii ED50 (T. gondii (tachyzoites)): 2.9 µM and 2.87 ± 0.19 µM
SI (T. gondii) (T. gondii (tachyzoites); [5]): 24.4

N#CSCCOc1ccc(Oc2ccccc2)cc1 [WC-9, 4-phenoxyphenoxyethyl thiocyanate, reference compound]
IC50 (T. cruzi (amastigotes) [2]): 5 ± 1.1 µM
effect on parasitemia [3]: able to impair parasitemia
Cytotoxicity ED50 (Vero cells): 82.6 ± 7.3 µM
ED50 against amastigotes of Trypanosoma cruzi [4]: low nanomolar range

O=C(Cn1ccnc1[N+](=O)[O-])NCc1ccccc1 [Benznidazole, reference compound]
IC50 (T. cruzi (amastigotes) [2]): 1.92 ± 0.55 µM

N#CSCCOc1cccc(Oc2ccc(Cl)cc2)c1 [Compound 48, 3-(4-Chlorophenoxy)phenoxyethyl Thiocyanate]
T. cruzi ED50 (T. cruzi (amastigotes) [1]): very low micromolar range
SI (T. cruzi) (T. cruzi (amastigotes) [1]): 15.7
IC50 (T. cruzi (amastigotes) [2]): 6.27 ± 0.75 µM
Cytotoxicity ED50 (Vero cells): 98.4 ± 5.8 µM

N#CSCCOc1ccc(Br)cc1Br [Compound 68, 2,4-Dibromophenoxyethyl Thiocyanate]
T. cruzi ED50 (T. cruzi (amastigotes) [1]): inactive
IC50 (T. cruzi (amastigotes) [2]): > 20 µM
Cytotoxicity ED50 (Vero cells): > 50.0 µM

COc1cccc(Oc2cccc(OCCSC#N)c2)c1 [Compound 50, 3-(3-Methoxyphenoxy)-phenoxyethyl Thiocyanate]
SI (T. cruzi) (T. cruzi (amastigotes) [1]): 11.0
IC50 (T. cruzi (amastigotes) [2]): 8.75 ± 0.33 µM
SI (T. gondii) (T. gondii (tachyzoites); [5]): 23.9
Cytotoxicity ED50 (Vero cells): 96.2 ± 37.5 µM

[N-]=[N+]=NCCOc1ccc(Oc2ccccc2)cc1 [Compound 64, 4-Phenoxyphenoxyethyl Azide]
IC50 (T. cruzi (amastigotes) [2]): > 10 µM
Cytotoxicity ED50 (Vero cells): > 200.0 µM

N#CSCCOc1ccc(Oc2ccc(C(F)(F)F)cc2)cc1 [Compound 16, 4-[(4-Trifluoro)phenoxy]phenoxyethyl Thiocyanate]
T. cruzi ED50 (T. cruzi (amastigotes) [1]): 9.2 µM and 9.2 ± 1.8 µM
SI (T. gondii) (T. gondii (tachyzoites)): > 26.7
T. gondii ED50 (T. gondii (tachyzoites)): 1.9 µM and 1.86 ± 0.38 µM
Cytotoxicity ED50 (Vero cells): > 50.0 µM

N#CSCCOc1cccc(Oc2cccc(Cl)c2)c1 [Compound 47, 3-(3-Chlorophenoxy)phenoxyethyl Thiocyanate]
T. cruzi ED50 (T. cruzi (amastigotes) [1]): vanishing biological activity
IC50 (T. cruzi (amastigotes) [2]): > 20 µM
Cytotoxicity ED50 (Vero cells): > 200.0 µM

N#CSCCOc1cccc(Oc2cccnc2)c1 [Compound 61, 3-(3-Pyridyn-3-yloxy)phenoxyethyl Thiocyanate]
SI (T. cruzi) (T. cruzi (amastigotes) [1]): 16.6
SI (T. gondii) (T. gondii (tachyzoites)): 33.5
Cytotoxicity ED50 (Vero cells): 124.0 ± 12.0 µM

N#CSCCOc1ccc(Oc2ccc3ccccc3c2)cc1 [Compound 20, β-Naphtyloxyphenoxyethyl Thiocyanate]
T. gondii ED50 (T. gondii (tachyzoites)): 2.3 µM and 2.25 ± 0.84 µM
SI (T. gondii) (T. gondii (tachyzoites); [5]): 46.5
Cytotoxicity ED50 (Vero cells): 104.7 ± 7.8 µM

N#CSCCOc1cccnc1 [Compound 72, 3-Pyridyloxyethyl Thiocyanate]
T. cruzi ED50 (T. cruzi (amastigotes) [1]): devoid of antiparasitic activity
T. gondii ED50 (T. gondii (tachyzoites); tachyzoites, one experiment in triplicate, means ± S.D.): devoid of antiparasitic activity

Cc1ccc(S(=O)(=O)OCCOc2cccnc2)cc1 [Compound 71, 3-Pyridyloxyethyl 4-Toluenesulfonate]
IC50 (T. cruzi (amastigotes) [2]): > 10 µM
Cytotoxicity ED50 (Vero cells): > 200 µM

N#CSCCOc1cccc(Oc2ccncc2)c1 [Compound 62, 3-(4-Pyridyloxy)phenoxyethyl Thiocyanate]
T. cruzi ED50 (T. cruzi (amastigotes) [1]): free of antiparasitic activity
IC50 (T. cruzi (amastigotes) [2]): > 10 µM
Cytotoxicity ED50 (Vero cells): > 200.0 µM

N#CSCCOc1ccc(Oc2ccccn2)cc1 [Compound 29, 4-(Pyridin-2-yloxy)phenoxyethyl Thiocyante]
Cytotoxicity ED50 (Vero cells): > 200.0 µM
